This data set is described as follows: penetration of retinal into the skin (topical application). As to conditions: retinal by itself.

For `CC1=C(/C=C/C(C)=C/C=C/C(C)=C/C=O)C(C)(C)CCC1` [Retinal], the penetration rate entry was “about 2%”.

For the origin of these results see patent publication US20130149362A1, “TREATMENT PRODUCT AND METHOD” (priority 2007, published 2013).
